# Measured values published in ChEMBL document CHEMBL5352441, “Modulation of FLT3-ITD and CDK9 in acute myeloid leukaemia cells by novel proteolysis targeting chimera (PROTAC)” (2022).
# The source made the active and inactive calls. The rule behind the calls is not given here.
# Key:
# [1] = test system: MV4-11; assay: Induction of cell cycle arrest in CRBN-deficient human MV4-11 cells assessed as accumulation of cells at G1 phase at 2.5 uM incubated for 16 hrs by PI staining based flow cytometry analysis (reference value: 54.05%); type: functional
# [2] = test system: MV4-11; assay: Induction of cell cycle arrest in CRBN-deficient human MV4-11 cells assessed as accumulation of cells at sub-G1 phase at 0.5 uM incubated for 16 hrs by PI staining based flow cytometry analysis (reference value: 12.52%); type: functional
# [3] = test system: MV4-11; assay: Induction of cell cycle arrest in CRBN-deficient human MV4-11 cells assessed as accumulation of cells at S phase at 0.5 uM incubated for 16 hrs by PI staining based flow cytometry analysis (reference value: 36.91%); type: functional
# [4] = test system: MV4-11; assay: Induction of cell cycle arrest in CRBN-deficient human MV4-11 cells assessed as accumulation of cells at G2/M phase at 0.1 uM incubated for 16 hrs by PI staining based flow cytometry analysis (reference value: 9.34%); type: functional
# [5] = test system: MV4-11; assay: Induction of cell cycle arrest in human MV4-11 cells assessed as accumulation of cells at subG1 phase at 0.02 uM incubated for 16 hrs by PI staining based flow cytometry analysis (reference value: 10.51%); type: functional
# [6] = biological target: Receptor-type tyrosine-protein kinase FLT3 (Homo sapiens) (UniProt P36888); assay: Inhibition of FLT3 signalling pathway in human MV4-11 cells assessed as reduction in STAT5 phosphorylation at Y694 residues at 0.1 to 0.5 uM preincubated for 90 mins with 4-hydroxythalidomide followed by compound addition and further incubated for 16 hrs by immunoblot analysis; type: cell-based; conditions: dose 0.1-0.5 µM
# Chain of Receptor-type tyrosine-protein kinase FLT3 (Homo sapiens) (P36888 whole entry): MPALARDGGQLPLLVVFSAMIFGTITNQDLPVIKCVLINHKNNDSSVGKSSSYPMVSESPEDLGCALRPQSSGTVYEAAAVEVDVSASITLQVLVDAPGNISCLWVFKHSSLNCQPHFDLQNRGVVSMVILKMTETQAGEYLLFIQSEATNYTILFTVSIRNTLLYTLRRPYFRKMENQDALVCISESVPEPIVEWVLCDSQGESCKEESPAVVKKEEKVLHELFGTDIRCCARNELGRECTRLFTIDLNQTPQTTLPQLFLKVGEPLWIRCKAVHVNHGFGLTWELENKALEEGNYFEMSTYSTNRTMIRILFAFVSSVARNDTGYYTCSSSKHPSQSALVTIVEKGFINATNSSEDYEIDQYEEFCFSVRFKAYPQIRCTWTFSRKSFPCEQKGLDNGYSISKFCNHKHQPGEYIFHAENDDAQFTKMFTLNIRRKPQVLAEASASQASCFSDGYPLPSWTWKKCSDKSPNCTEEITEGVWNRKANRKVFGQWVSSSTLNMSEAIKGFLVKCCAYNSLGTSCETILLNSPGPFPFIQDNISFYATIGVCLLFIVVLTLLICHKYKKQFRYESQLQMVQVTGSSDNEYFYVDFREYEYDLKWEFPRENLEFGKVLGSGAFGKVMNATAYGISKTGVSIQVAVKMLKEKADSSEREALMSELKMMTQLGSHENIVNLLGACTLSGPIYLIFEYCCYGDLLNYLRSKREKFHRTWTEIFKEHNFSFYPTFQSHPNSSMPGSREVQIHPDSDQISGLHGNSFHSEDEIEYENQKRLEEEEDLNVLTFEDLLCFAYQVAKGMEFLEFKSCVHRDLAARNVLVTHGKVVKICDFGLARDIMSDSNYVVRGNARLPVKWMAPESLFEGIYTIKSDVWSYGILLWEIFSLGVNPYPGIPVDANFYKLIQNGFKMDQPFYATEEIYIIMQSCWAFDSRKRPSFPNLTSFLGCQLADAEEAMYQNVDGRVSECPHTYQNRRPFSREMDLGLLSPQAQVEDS
# [7] = biological target: CDK9/cyclin T1 (Homo sapiens) (UniProt O60563+P50750); assay: Inhibition of human CDK9/Cyclin T1 assessed as residual activity at 100 nM relative to control; type: protein-complex assay
# [8] = test system: MV4-11; assay: Induction of cell cycle arrest in CRBN-deficient human MV4-11 cells assessed as accumulation of cells at G2/M phase at 0.004 uM incubated for 16 hrs by PI staining based flow cytometry analysis (reference value: 9.34%); type: functional
# [9] = test system: MV4-11; assay: Downregulation of FLT3 gene expression in human MV4-11 cells at 0.004 to 2.5 uM incubated for 4 hrs by qRT-PCR analysis; type: functional, cell-based; conditions: dose 0.004-2.5 µM
# [10] = test system: Kasumi 1; assay: Antiproliferative activity against human Kasumi 1 cells assessed as cell growth inhibition incubated for 72 hrs by resazurin dye based fluorescence analysis; type: functional
# [11] = test system: MOLM-13; assay: Antiproliferative activity against human MOLM-13 cells harboring FLT3-ITD mutation assessed as cell growth inhibition incubated for 72 hrs by resazurin dye based fluorescence analysis; type: functional
# [12] = test system: MV4-11; assay: Induction of cell cycle arrest in CRBN-deficient human MV4-11 cells assessed as accumulation of cells at G1 phase at 0.5 uM incubated for 16 hrs by PI staining based flow cytometry analysis (reference value: 54.05%); type: functional
# [13] = test system: MV4-11; assay: Induction of cell cycle arrest in human MV4-11 cells assessed as accumulation of cells at subG1 phase at 2.5 uM incubated for 16 hrs by PI staining based flow cytometry analysis (reference value: 10.51%); type: functional
# [14] = test system: MV4-11; assay: Induction of cell cycle arrest in human MV4-11 cells assessed as accumulation of cells at G1 phase at 2.5 uM incubated for 16 hrs by PI staining based flow cytometry analysis (reference value: 62.97%); type: functional
# [15] = test system: MV4-11; assay: Induction of cell cycle arrest in human MV4-11 cells assessed as accumulation of cells at subG1 phase at 0.1 uM incubated for 16 hrs by PI staining based flow cytometry analysis (reference value: 10.51%); type: functional
# [16] = test system: MV4-11; assay: Downregulation of Myc gene expression in human MV4-11 cells incubated for 4 hrs by qRT-PCR analysis; type: functional, cell-based; conditions: dose 0.004-2.5 µM
# [17] = test system: MV4-11; assay: Induction of cell cycle arrest in CRBN-deficient human MV4-11 cells assessed as accumulation of cells at sub-G1 phase at 0.1 uM incubated for 16 hrs by PI staining based flow cytometry analysis (reference value: 12.52%); type: functional
# [18] = test system: MV4-11; assay: Induction of cell cycle arrest in human MV4-11 cells assessed as accumulation of cells at G2/M phase at 2.5 uM incubated for 16 hrs by PI staining based flow cytometry analysis (reference value: 10.86%); type: functional
# [19] = biological target: Protein cereblon/Receptor-type tyrosine-protein kinase FLT3 (Homo sapiens) (UniProt P36888+Q96SW2); assay: PROTAC activity at CRBN/FLT3 in human MV4-11 cells harboring FLT3-ITD mutation assessed as induction of protein degradation at low nanomolar concentrations incubated for 16 hrs by immunoblot analysis; type: cell-based
# Chain of Protein cereblon/Receptor-type tyrosine-protein kinase FLT3 (Homo sapiens) (P36888 27-993 limits assumed): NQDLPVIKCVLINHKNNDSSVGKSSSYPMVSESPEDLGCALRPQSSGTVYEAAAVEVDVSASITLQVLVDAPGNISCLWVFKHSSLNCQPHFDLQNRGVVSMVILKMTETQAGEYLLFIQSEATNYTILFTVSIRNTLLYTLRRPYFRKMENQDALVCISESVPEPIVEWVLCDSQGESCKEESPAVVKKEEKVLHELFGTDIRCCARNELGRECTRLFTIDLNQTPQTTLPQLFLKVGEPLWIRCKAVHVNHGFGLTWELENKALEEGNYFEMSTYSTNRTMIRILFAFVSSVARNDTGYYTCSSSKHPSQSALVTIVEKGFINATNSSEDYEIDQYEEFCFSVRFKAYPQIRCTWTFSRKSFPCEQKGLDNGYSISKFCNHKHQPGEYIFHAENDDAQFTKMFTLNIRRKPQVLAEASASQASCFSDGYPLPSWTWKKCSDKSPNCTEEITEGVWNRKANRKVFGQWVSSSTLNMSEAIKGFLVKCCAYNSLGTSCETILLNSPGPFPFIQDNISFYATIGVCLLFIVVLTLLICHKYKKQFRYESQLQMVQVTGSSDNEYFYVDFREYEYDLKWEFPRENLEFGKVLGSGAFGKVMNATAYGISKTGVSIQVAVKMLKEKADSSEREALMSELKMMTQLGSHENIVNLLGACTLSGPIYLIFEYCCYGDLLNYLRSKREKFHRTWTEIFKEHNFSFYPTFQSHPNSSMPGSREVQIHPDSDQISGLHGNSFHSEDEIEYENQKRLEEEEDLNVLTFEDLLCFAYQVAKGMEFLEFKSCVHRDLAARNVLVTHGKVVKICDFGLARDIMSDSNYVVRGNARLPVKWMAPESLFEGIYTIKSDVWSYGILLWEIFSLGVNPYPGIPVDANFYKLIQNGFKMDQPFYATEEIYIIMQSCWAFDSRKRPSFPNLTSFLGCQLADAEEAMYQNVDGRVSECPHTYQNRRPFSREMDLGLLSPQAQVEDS
# Chain of Protein cereblon/Receptor-type tyrosine-protein kinase FLT3 (Homo sapiens) (Q96SW2 whole entry partner): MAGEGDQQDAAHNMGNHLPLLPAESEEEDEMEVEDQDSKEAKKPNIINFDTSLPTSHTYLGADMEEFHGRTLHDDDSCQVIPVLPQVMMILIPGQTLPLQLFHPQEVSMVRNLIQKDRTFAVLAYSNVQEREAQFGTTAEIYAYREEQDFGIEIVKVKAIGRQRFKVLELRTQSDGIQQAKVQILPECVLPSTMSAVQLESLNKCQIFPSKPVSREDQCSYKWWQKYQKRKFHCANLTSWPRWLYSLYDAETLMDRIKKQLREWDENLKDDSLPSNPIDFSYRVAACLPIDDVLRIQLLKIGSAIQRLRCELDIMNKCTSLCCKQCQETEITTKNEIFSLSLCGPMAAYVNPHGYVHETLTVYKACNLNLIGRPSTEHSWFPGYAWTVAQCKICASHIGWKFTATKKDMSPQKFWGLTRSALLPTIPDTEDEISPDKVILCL
# [20] = test system: MV4-11; assay: Induction of cell cycle arrest in CRBN-deficient human MV4-11 cells assessed as accumulation of cells at S phase at 0.004 uM incubated for 16 hrs by PI staining based flow cytometry analysis (reference value: 36.91%); type: functional
# [21] = test system: MV4-11; assay: Induction of cell cycle arrest in human MV4-11 cells assessed as accumulation of cells at G2/M phase at 0.5 uM incubated for 16 hrs by PI staining based flow cytometry analysis (reference value: 10.86%); type: functional
# [22] = biological target: Receptor-type tyrosine-protein kinase FLT3 (Homo sapiens) (UniProt P36888); assay: Inhibition of FLT3 autophosphorylation at Y589/591 residue in human MV4-11 cells at 0.1 to 0.5 uM preincubated for 90 mins with 4-hydroxythalidomide followed by compound addition and further incubated for 16 hrs by immunoblot analysis; type: cell-based; conditions: dose 0.1-0.5 µM
# [23] = test system: MV4-11; assay: Induction of cell cycle arrest in human MV4-11 cells assessed as accumulation of cells at S phase at 0.02 uM incubated for 16 hrs by PI staining based flow cytometry analysis (reference value: 26.16%); type: functional
# [24] = test system: MV4-11; assay: Induction of cell cycle arrest in CRBN-deficient human MV4-11 cells assessed as accumulation of cells at sub-G1 phase at 0.004 uM incubated for 16 hrs by PI staining based flow cytometry analysis (reference value: 12.52%); type: functional
# [25] = biological target: Receptor-type tyrosine-protein kinase FLT3 (Homo sapiens) (UniProt P36888); assay: Inhibition of FLT3 signalling pathway in human MV4-11 cells assessed as reduction in ERK1/2 phosphorylation at T202/Y204 residues at 0.1 to 0.5 uM preincubated for 90 mins with 4-hydroxythalidomide followed by compound addition and further incubated for 16 hrs by immunoblot analysis; type: cell-based; conditions: dose 0.1-0.5 µM
# [26] = test system: Receptor-type tyrosine-protein kinase FLT3 (Homo sapiens), P36888 [UNDEFINED MUTATION]; assay: Inhibition of FLT3 in human MV4-11 cells harboring FLT3-ITD mutation assessed as reduction in ERK1/2 phosphorylation at T202/Y204 residue at 0.004 to 2.5 uM incubated for 16 hrs by immunoblot analysis; type: cell-based; conditions: dose 0.004-2.5 µM
# Chain of Receptor-type tyrosine-protein kinase FLT3 (Homo sapiens), P36888 [UNDEFINED MUTATION] (P36888 whole entry, looked up, change not shown): as the sequence (P36888 whole entry) above
# [27] = test system: MV4-11; assay: Downregulation of MEISI gene expression in human MV4-11 cells incubated for 4 hrs by qRT-PCR analysis; type: functional, cell-based; conditions: dose 0.004-2.5 µM
# [28] = biological target: T1, Protein cereblon/Cyclin-dependent kinase 9 (Homo sapiens) (UniProt P50750+Q96SW2); assay: PROTAC activity at CRBN/CDK9 in CRBN-deficient human MV4-11 cells assessed as induction of protein degradation at 0.004 to 2.5 uM incubated for 16 hrs by immunoblot analysis; type: cell-based; conditions: dose 0.004-2.5 µM
# T1 sequence (P50750 whole entry, looked up): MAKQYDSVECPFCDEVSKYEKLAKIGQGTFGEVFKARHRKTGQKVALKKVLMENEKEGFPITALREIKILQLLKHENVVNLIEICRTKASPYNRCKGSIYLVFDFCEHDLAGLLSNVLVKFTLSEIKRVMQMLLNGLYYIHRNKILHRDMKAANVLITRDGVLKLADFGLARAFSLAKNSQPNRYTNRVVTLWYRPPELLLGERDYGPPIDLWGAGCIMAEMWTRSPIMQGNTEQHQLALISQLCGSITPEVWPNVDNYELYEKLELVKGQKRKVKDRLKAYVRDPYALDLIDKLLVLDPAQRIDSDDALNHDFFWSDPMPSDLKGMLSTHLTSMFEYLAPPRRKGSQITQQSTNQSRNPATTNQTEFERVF
# T1 sequence (Q96SW2 whole entry, looked up): as the sequence (Q96SW2 whole entry partner) above
# [29] = biological target: T1, Protein cereblon/Cyclin-dependent kinase 9 (Homo sapiens); assay: PROTAC activity at CRBN/CDK9 in human MV4-11 cells at 0.1 to 0.5 uM preincubated for 90 mins with 4-hydroxythalidomide followed by compound addition and further incubated for 16 hrs by immunoblot analysis; type: cell-based; conditions: dose 0.1-0.5 µM
structure (smiles),measurement,setting,value
NC1CCC(Nc2nc(Nc3ccc(N4CCN(CCOCCOCCNC(=O)CNc5cccc6c5C(=O)N(C5CCC(=O)NC5=O)C6=O)CC4)cc3)c3ncn(C4CCCC4)c3n2)CC1 (centres undefined),Activity,[1],89.4%
same,Activity,[2],21.07%
same,Activity,[3],5.13%
same,Activity,[4],3.38%
same,Activity,[5],12.82%
same,inhibition,[6],Active
same,Activity,[7],8%
same,Activity,[8],8.04%
same,Activity,[9],inactive
same,GI50,[10],> 10 µM
same,GI50,[11],42 nM
same,Activity,[12],90.95%
same,Activity,[13],79.82%
same,Activity,[14],57.33%
same,Activity,[15],20.86%
same,Activity,[16],Dose-Dependent Effect
same,Activity,[17],17.71%
same,Activity,[18],7.79%
same,Activity,[19],inactive
same,Activity,[20],28.88%
same,Activity,[21],6.85%
same,inhibition,[22],Active
same,Activity,[23],12.41%
same,Activity,[24],12.68%
same,inhibition,[25],Active
same,inhibition,[26],Active
same,Activity,[27],Dose-Dependent Effect
same,Activity,[28],inactive
same,Activity,[29],inactive
